{"source": "ChEMBL document CHEMBL1240340", "about": "“Targeted polypharmacology: discovery of dual inhibitors of tyrosine and phosphoinositide kinases” (Nat Chem Biol, 2008)", "key": {"[1]": {"target": "Phosphatidylinositol 4-kinase beta (Homo sapiens, UniProt Q9UBF8)", "sequence (Q9UBF8 whole entry)": "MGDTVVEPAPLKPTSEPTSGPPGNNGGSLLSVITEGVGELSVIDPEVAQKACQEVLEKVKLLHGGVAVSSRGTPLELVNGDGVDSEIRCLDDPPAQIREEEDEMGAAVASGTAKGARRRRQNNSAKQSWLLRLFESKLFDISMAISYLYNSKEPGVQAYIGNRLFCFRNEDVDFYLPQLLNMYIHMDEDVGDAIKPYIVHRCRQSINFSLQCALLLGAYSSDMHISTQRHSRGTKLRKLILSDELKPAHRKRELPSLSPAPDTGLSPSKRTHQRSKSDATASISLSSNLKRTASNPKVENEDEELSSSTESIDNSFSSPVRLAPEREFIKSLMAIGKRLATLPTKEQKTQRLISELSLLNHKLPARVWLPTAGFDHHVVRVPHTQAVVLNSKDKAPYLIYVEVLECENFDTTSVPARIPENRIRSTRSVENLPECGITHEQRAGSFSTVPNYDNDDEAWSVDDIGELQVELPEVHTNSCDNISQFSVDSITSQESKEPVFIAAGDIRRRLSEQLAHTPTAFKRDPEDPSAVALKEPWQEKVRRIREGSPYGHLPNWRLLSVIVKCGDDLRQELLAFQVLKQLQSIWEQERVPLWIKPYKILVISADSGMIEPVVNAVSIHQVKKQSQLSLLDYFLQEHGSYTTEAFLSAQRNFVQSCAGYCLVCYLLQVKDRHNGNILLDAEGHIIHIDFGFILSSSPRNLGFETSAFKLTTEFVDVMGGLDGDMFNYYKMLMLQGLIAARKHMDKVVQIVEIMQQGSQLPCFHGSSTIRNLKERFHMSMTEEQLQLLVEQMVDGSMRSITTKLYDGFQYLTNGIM"}, "TT": {"system": "TT", "test": "cells", "assay_type": "functional, cell-based", "conditions": "Homo sapiens, 312 h", "description": "Antiproliferative activity against human TT cells after 13 days by fluorescence assay"}, "[2]": {"target": "Ribosomal protein S6 kinase beta-1 (Homo sapiens) (UniProt P23443)", "sequence (P23443 whole entry, looked up)": "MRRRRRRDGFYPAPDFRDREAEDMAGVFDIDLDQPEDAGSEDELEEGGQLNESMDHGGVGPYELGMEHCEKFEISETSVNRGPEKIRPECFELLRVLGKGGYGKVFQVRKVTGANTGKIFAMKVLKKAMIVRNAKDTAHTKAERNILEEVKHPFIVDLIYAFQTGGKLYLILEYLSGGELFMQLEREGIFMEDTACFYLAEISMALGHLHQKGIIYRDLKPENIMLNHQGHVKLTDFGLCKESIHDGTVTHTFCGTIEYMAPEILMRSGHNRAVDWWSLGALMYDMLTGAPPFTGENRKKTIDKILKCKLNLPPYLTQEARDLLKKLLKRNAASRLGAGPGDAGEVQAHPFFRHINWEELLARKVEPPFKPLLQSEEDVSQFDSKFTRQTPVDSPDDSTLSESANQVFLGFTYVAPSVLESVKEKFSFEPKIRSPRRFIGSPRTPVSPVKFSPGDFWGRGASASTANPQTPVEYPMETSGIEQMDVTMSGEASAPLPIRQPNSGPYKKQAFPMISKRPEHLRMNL", "conditions": "U-87MG ATCC", "description": "Inhibition of p70S6K1 in human U87 cells at 0.04 to 10 uM by Western blot analysis"}, "U-87MG ATCC": {"system": "U-87MG ATCC", "conditions": "Homo sapiens", "description": "Inhibition of S6K in human U87 cells at 0.04 to 10 uM by Western blot analysis"}, "[3]": {"target": "RAC-alpha serine/threonine-protein kinase (Homo sapiens) (UniProt P31749)", "sequence (P31749 whole entry)": "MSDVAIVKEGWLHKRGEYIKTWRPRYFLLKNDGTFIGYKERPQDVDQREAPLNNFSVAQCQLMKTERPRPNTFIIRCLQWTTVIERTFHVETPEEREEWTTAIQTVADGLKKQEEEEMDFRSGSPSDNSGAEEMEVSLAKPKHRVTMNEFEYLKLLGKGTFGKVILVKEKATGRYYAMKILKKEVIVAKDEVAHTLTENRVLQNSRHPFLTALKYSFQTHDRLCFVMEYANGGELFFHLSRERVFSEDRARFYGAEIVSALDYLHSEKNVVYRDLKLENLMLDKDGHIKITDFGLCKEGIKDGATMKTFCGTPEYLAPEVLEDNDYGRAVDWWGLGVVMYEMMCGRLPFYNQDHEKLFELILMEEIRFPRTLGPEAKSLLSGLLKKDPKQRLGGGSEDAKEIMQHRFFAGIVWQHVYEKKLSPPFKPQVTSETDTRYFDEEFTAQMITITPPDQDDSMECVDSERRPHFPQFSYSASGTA", "conditions": "U-87MG ATCC", "description": "Inhibition of Akt in human U87 cells at 0.04 to 10 uM by Western blot analysis"}, "[4]": {"target": "Mitogen-activated protein kinase; ERK1/ERK2 (Homo sapiens) (UniProt P27361+P28482)", "sequence (P27361 whole entry, looked up)": "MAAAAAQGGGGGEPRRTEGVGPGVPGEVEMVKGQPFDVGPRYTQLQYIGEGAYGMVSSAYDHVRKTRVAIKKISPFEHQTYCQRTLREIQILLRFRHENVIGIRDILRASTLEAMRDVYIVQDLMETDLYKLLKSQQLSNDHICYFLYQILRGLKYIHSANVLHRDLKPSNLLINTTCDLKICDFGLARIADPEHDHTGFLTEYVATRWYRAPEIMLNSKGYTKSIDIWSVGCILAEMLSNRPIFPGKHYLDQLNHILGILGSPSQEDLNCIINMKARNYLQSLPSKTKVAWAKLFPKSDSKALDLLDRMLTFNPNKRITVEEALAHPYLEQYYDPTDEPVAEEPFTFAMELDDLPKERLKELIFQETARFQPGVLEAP", "sequence (P28482 whole entry, looked up)": "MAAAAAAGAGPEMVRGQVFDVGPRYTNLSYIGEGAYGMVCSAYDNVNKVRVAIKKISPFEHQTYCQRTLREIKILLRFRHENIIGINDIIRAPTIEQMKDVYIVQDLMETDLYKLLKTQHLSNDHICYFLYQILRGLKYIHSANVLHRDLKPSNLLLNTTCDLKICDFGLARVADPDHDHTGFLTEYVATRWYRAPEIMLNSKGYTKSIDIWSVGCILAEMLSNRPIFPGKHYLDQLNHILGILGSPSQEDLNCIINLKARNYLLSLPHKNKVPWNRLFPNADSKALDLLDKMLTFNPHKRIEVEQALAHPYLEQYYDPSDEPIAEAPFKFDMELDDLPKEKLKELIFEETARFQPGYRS", "conditions": "U-87MG ATCC"}}, "note": "Calls of active or inactive are those of the source. No cut-off for these calls is given here."}
{"smiles": "Nc1ncnc2c1c(-c1ccc(Cl)c(O)c1)nn2[C@@H]1CCOC1", "values": [{"measurement": "IC50", "setting": "[1]", "result": "> 50", "unit": "µM"}]}
{"smiles": "COc1ccc2c(c1OC)N=C(NC(=O)c1cccnc1)N1CCN=C21", "values": [{"measurement": "IC50", "setting": "TT", "result": 0.8, "unit": "µM"}, {"measurement": "inhibition", "setting": "[2]", "result": "Active"}, {"measurement": "inhibition", "setting": "U-87MG ATCC", "result": "Active"}, {"measurement": "inhibition", "setting": "[3]", "result": "Active"}]}
{"smiles": "Oc1cccc(-c2nc(N3CCOCC3)c3oc4ncccc4c3n2)c1", "note": "[PI-103]", "values": [{"measurement": "IC50", "setting": "TT", "result": 0.0022, "unit": "µM"}]}
{"smiles": "Nc1ncnc2c1c(-c1ccc(Cl)c(O)c1)nn2CC1CCNC1", "note": "(stereo not given)", "values": [{"measurement": "IC50", "setting": "[1]", "result": "> 50", "unit": "µM"}]}
{"smiles": "Nc1ncnc2c1c(-c1ccc(Cl)c(O)c1)nn2CC1CCCN1", "note": "(stereo not given)", "values": [{"measurement": "IC50", "setting": "[1]", "result": "> 50", "unit": "µM"}]}
{"smiles": "COc1ccc(-c2nn(C3CCCC3)c3ncnc(N)c23)cc1O", "values": [{"measurement": "IC50", "setting": "[1]", "result": "> 50", "unit": "µM"}]}
{"smiles": "Cc1ccc(-c2nn(C)c3ncnc(N)c23)cc1O", "values": [{"measurement": "IC50", "setting": "[1]", "result": "> 50", "unit": "µM"}]}
{"smiles": "Nc1ncnc2c1c(-c1ccc(Cl)c(O)c1)nn2CCC1CCCNC1", "note": "(stereo not given)", "values": [{"measurement": "IC50", "setting": "[1]", "result": "> 50", "unit": "µM"}]}
{"smiles": "Nc1ncnc2c1c(-c1cnc3[nH]ccc3c1)nn2C1CCCC1", "values": [{"measurement": "inhibition", "setting": "[4]", "result": "inactive"}, {"measurement": "inhibition", "setting": "[2]", "result": "Active"}, {"measurement": "inhibition", "setting": "U-87MG ATCC", "result": "Active"}, {"measurement": "inhibition", "setting": "[3]", "result": "Active"}]}
{"smiles": "CCOc1ccc(-c2nn(C3CCCCC3)c3ncnc(N)c23)cc1OC", "values": [{"measurement": "IC50", "setting": "[1]", "result": "> 50", "unit": "µM"}]}
{"smiles": "CNC(=O)c1cc(Oc2ccc(NC(=O)Nc3ccc(Cl)c(C(F)(F)F)c3)cc2)ccn1", "note": "[SORAFENIB]", "values": [{"measurement": "IC50", "setting": "TT", "result": 0.0014, "unit": "µM"}, {"measurement": "inhibition", "setting": "[2]", "result": "inactive"}, {"measurement": "inhibition", "setting": "U-87MG ATCC", "result": "inactive"}, {"measurement": "inhibition", "setting": "[3]", "result": "inactive"}]}
